Measurements: patent publication US12180178B2, “Heteroaryl azole compound and pest control agent” (NIPPON SODA CO., LTD., priority 2018, dated 2024)

Legend:
Assay type in all cases: in vivo
[1] = tested on: Plutella xylostella; experiment: Test of Efficacy on Plutella xylostella (cabbage leaf dip); conditions: foliar, 72 h, cabbage leaves dipped 30 seconds, second instar larvae, after 3 days, read-out: insecticidal rate
Protocol: 5 parts of the heteroaryl azole compound of the present invention, 93.6 parts of dimethylformamide, and 1.4 parts of polyoxyethylene alkyl aryl ether were mixed and dissolved to prepare emulsion (I) containing 5% of the active ingredient. An insecticidal rate was calculated according to the following expression: Insecticidal rate (%)=(The number of dead insects/The number of tested insects)×100 The emulsion (I) was diluted with water such that the concentration of the compound of the present invention was 125 ppm. Cabbage leaves were dipped in the dilution for 30 seconds. The resulting cabbage leaves were placed in a petri dish. Five second instar larvae of Plutella xylostella were released thereto. The petri dish was placed in a thermostat chamber having a temperature of 25° C. and a humidity of 60%. Life and death were determined after 3 days from the release of the insects, and the insecticidal rate was calculated. The test was conducted in duplicate.

[2] = tested on: Mythimna separata; experiment: Test of Efficacy on Mythimna separata (test feed); conditions: 1 μl of emulsion (I) (5% active ingredient) in 0.8 g artificial feed; second instar larvae; 25° C.; fifth day
Protocol: 5 parts of the heteroaryl azole compound of the present invention, 93.6 parts of dimethylformamide, and 1.4 parts of polyoxyethylene alkyl aryl ether were mixed and dissolved to prepare emulsion (I) containing 5% of the active ingredient. For a control, 98.5 parts of dimethylformamide and 1.5 parts of polyoxyethylene alkyl aryl ether were mixed and dissolved to prepare emulsion (II). An insecticidal rate was calculated according to the following expression: Insecticidal rate (%)=(The number of dead insects/The number of tested insects)×100 0.8 g of commercially available artificial feed (Insecta LFS, manufactured by Nosan Corp.) and 1 μl of the emulsion (I) were well mixed to obtain test feed. A plastic test container (capacity: 1.4 ml) was packed with 0.2 g of the test feed per treatment plot. Then, two second instar larvae of Mythimna separata were inoculated to each treatment plot. A plastic lid was put on the test container so as to prevent escape of the second instar larvae of Mythimna separata. The container was placed in a thermostat chamber of 25° C. On the fifth day, the insecticidal rate and the food intake were examined. The test was conducted in duplicate. The insecticidal rate and the food intake of a control plot were examined in the same way as in Test Example 1 except that the emulsion (I) was changed to the emulsion (II).

[3] = tested on: Aphis craccivora; experiment: Test of Efficacy on Aphis craccivora (spray on black-eyed peas); conditions: 96 h, 125 ppm, sprayed to black-eyed peas, nymphs, after 4 days, read-out: insecticidal rate
Protocol: (§1) 5 parts of the heteroaryl azole compound of the present invention, 93.6 parts of dimethylformamide, and 1.4 parts of polyoxyethylene alkyl aryl ether were mixed and dissolved to prepare emulsion (I) containing 5% of the active ingredient.
(§2) An insecticidal rate was calculated according to the following expression: Insecticidal rate (%)=(The number of dead insects/The number of tested insects)×100
Seedlings of black-eyed peas were raised in 10-cm pots. Aphis craccivora nymphs were inoculated onto primary leaves. The emulsion (I) was diluted with water such that the concentration of the compound of the present invention was 125 ppm. The dilution was sprayed to the black-eyed peas parasitized by the Aphis craccivora nymphs. The black-eyed peas were placed in a thermostat chamber having a temperature of 25° C. and a humidity of 60%. Life and death of Aphis craccivora were determined after 4 days from the spraying, and the insecticidal rate was calculated. The test was conducted in duplicate.

[4] = tested on: Phyllotreta striolata; experiment: Test of Efficacy on Phyllotreta striolata (spray on Qing geng cai seedlings); conditions: 168 h, sprayed to Qing geng cai seedlings, adults, after 7 days, read-out: insecticidal rate
Protocol: as §1, §2
The emulsion (I) was diluted with water such that the concentration of the compound of the present invention was 125 ppm to prepare a test chemical. The test chemical was sprayed to Qing geng cai seedlings (at the seventh true leaf stage) planted in 10-cm pots. The Qing geng cai seedlings were dried in air and then placed in a plastic cup. Ten Phyllotreta striolata adults were released thereto. The plastic cup was stored in a thermostat chamber having a temperature of 25° C. and a humidity of 65%. Life and death were determined after 7 days from the release of the insects, and the insecticidal rate was calculated. The test was conducted in duplicate.

SMILES | pest or weed control at 125 ppm [1] [%] | insecticidal rate or food intake as compared with the control plot [2] | pest or weed control at 125 ppm [3] [%] | pest or weed control at 125 ppm [4] [%]
CCS(=O)(=O)c1cc(-c2ccccn2)cnc1-c1ncn(-c2ccc(OC(F)(F)F)cc2)n1 [d-6] | ≥ 80 | insecticidal rate of 100% for Mythimna separata or a food intake of 10% or less as compared with the control plot | ≥ 80 | ≥ 80
CCS(=O)(=O)c1cc(C2CC2)cnc1-c1ncn(-c2ccc(OC(F)(F)F)cc2)n1 [d-7] | ≥ 80 |  |  | ≥ 80
CCS(=O)(=O)c1cc(-c2ncccn2)cnc1-c1ncn(/C=C(\F)C(F)(F)C(F)(F)F)c1C [c-8] | ≥ 80 |  |  | ≥ 80
CCS(=O)(=O)c1cc(-c2ncccn2)cnc1-c1ncn(-c2ccc(OC(F)(F)F)cc2)n1 [d-1] | ≥ 80 |  |  | ≥ 80
CCS(=O)(=O)c1cc(C2CC2)c[n+]([O-])c1-c1cn(-c2ccc(OC(F)(F)F)cc2)cn1 [d-22] | ≥ 80 |  | ≥ 80 | ≥ 80
CCS(=O)(=O)c1cc(-c2ncccn2)cnc1-c1ncn(CC(F)(F)C(F)(F)C(F)(F)F)c1C [c-5] | ≥ 80 | insecticidal rate of 100% for Mythimna separata or a food intake of 10% or less as compared with the control plot | ≥ 80 | ≥ 80
CCS(=O)(=O)c1cc(-c2ncccn2)cnc1-c1ncn(/C=C(\F)C(F)(F)I)c1C [c-9] | ≥ 80 |  |  | ≥ 80
CCS(=O)(=O)c1cc(C2CC2)cnc1-c1cn(-c2ccc(OC(F)(F)F)cc2)cn1 [d-19, 5-cyclopropyl-3-(ethylsulfonyl)-2-(1-(4-(trifluoromethoxy)phenyl)-1H-imidazol-4-yl)pyridine] | ≥ 80 | insecticidal rate of 100% for Mythimna separata or a food intake of 10% or less as compared with the control plot | ≥ 80 | ≥ 80
CCS(=O)(=O)c1cc(-c2ccccn2)cnc1-c1cn(-c2ccc(OC(F)(F)F)cc2)cn1 [d-20] | ≥ 80 | insecticidal rate of 100% for Mythimna separata or a food intake of 10% or less as compared with the control plot | ≥ 80 | ≥ 80
CCS(=O)(=O)c1ccc(-n2cncn2)nc1-c1ncn(-c2ccc(OC(F)(F)F)cc2)c1C [d-27] | ≥ 80 | insecticidal rate of 100% for Mythimna separata or a food intake of 10% or less as compared with the control plot | ≥ 80 | 
